According to US7498046B2, “Composition for inducing immune response comprising inverted microsomes” (Queen Mary & Westfield College, priority 2003, dated 2009):

Experiments:
H2-Kb molecules = target: T1, H2-Kb molecules (Mus musculus, UniProt P01901); assay: Photo-crosslinking peptide binding assay of 125I-labelled ANB-NOS-OVA peptide to H2-Kb in microsomes or on the surface of RAW309Cr.1 cells; design: species or system murine; settings: competitor at the concentration of report peptides
T1 construct: incubated with microsomes of RAW309Cr.1 and living RAW309Cr.1 cells under UV irradiation; endogenous in cells; host or cells: RAW309Cr.1 murine macrophage cell line (purified ER microsomes, or living cells)
T1 sequence (P01901 22-369): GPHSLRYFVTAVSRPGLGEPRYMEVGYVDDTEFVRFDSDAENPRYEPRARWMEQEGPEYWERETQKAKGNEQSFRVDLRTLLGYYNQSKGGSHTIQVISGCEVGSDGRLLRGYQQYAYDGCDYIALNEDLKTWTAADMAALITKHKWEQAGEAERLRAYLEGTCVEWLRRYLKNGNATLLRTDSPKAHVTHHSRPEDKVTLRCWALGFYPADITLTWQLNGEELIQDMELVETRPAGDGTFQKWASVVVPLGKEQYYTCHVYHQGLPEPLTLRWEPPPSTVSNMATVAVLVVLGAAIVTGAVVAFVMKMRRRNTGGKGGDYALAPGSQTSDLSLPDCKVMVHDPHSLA
T1 sequence (P01887 21-119 partner): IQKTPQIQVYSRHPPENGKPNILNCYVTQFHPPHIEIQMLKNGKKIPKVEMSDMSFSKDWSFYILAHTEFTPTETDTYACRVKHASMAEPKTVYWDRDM
Protocol: Peptide OVA 257-264 (SIINFEKL) was modified by substitution of third residue isoleucine to tyrosine in order for iodination and by covalently coupling a phenylazide with a nitro group on the ε-amino group of lysine at position seven. This nitro group can be photoactivated. The crosslinker modification was performed by mixing 0.5 mg of ANB-NOS (N-5-azido-2-nitrobenzoyloxysuccinimide) in 200 μl DMSO with 100 μg peptide in 100 μl PBS and 50 μl CPAS (3-[cyclohexylamino]-1-propanesulfonic acid) (0.5 M, pH 10). The reaction was allowed to proceed for 30 min on ice. To remove the excess ANB-NOS and ions, the mixture was purified by gel filtration on Sephadex G-10 and subsequently by HPLC. […]
To detect the peptide-receptive MHC class I molecules in the microsomal membranes, a crosslinker (ANB-NOS) was conjugated to the ε-amino group of the lysine residue of an H2-Kb-binding ovalbumin (OVA) peptide (residues 257-264, SIINFEKL) and substituted the isoleucine at position 3 with tyrosine to allow for iodination. […] For a quantitative comparison of peptide-receptive H2-Kb in microsomes and on cell surface of living RAW309Cr.1, the modified OVA peptide was labelled by ^125I and incubated with microsomes of RAW309Cr.1 and living RAW309Cr.1 cells under UV irradiation. Peptide-bound H2-Kb molecules were subsequently analysed by immunoprecipitation with an anti-H2 antibody Y3.

B3Z T cell hybridoma = assay: Activation of B3Z T cell hybridoma (LacZ activity, IL-2 ELISA); format: cell-based; settings: soluble peptide
Protocol: Microsomes from 2×10^5 RAW309Cr.1 cells were used to load OVA or Ld-specific peptide as described in Material and Methods. 2×10^5 RAW309Cr.1 cells were pulsed with OVA peptide (see Material and Methods). After washing, peptide-pulsed 2×10^5 RAW309Cr.1 cells, OVA-loaded microsomes, Ld-peptide loaded microsomes, and the microsomes without peptide were co-cultured with 10^5 B3Z cells for over night. A) After washing with PBS, LacZ activity in B3Z cells was assayed by total cellular lysates with the LacZ substrate ONPG. The absorbance ([…]) was read after incubation for four hours at 37° C. B3Z cells cultured with 100 nM OVA peptide and normal medium were used as positive and negative control for the B3Z stimulation. B) The supernatants of these cultures were submitted for measuring IL-2 production by ELISA. The experiment was repeated four times with similar results. Error bars indicate the SEM of triplicate cultures. […]
The prepared stimuli including peptide-edited microsomes, peptide-pulsed RAW309Cr.1 cells, OVA peptide, were added to culture of 10^5 B3Z cells in a total of 200 μl. […] The linear range of OVA-response was determined by the addition of serial dilutions of SIINFEKL to the medium due to that the B3Z cells themselves express Kb and present SIINFEKL.

[1] = tested on: T cells isolated from spleens; assay: In vivo immunisation of C57BL/6 mice, spleen T cells cross-stimulated in vitro (proliferation, IL-2); settings: C57BL/6, injected twice subcutaneously, one week interval, T cells six days after second injection
Text: C57BL/6 (H-2b) mice were primed […]. by OVA-edited microsomes or Ld-peptide loaded microsomes or OVA peptide or OVA-pulsed RAW309Cr.1 cells and challenged by same stimulus after seven days. Six days after the challenge, enriched T cells were isolated from spleens and cultured at 10^5 cells/well with stimulus indicated. The RAW309Cr.1 cells were irradiated before co-culture with T cells. After three days, supernatants were harvested for cytokine ELISA (b) and cultures pulsed with [^3H]thymidine (a). The results are representative of groups of at least three mice per treatment group and the experiment was repeated four times with similar results. Error bars indicate the SEM of triplicate cultures. Similar set of experiments performed in Balb/c (H-2d) mice served as negative control.
To further examine the ability of OVA-edited microsomes to induce immune responses in vivo, OVA-edited microsomes from RAW309Cr.1 cells, microsomes loaded with Ld-specific peptide, soluble OVA peptides, RAW309Cr.1 pulsed with OVA peptides and PBS were used to induce immune response in vivo. Five groups of C57BL/6 or Balb/c mice, each group consisting of five mice, were injected twice subcutaneously with above stimuli, respectively. The interval between injections was one week. […]

SIINFEKL [OVA peptide]
Competition of the labelled report OVA peptide binding to Kb (H2-Kb molecules): 50%
IL-2 production by B3Z cells (B3Z T cell hybridoma): could induce IL-2 production
Induction of T cell responses by the immunising stimulus (proliferation of spleen T cells) [1]: responded to OVA-edited microsomes in vitro
